# Read-outs that look alike come from different tables or passages of the source.
# Experiments:
# P. aeruginosa = assay: Bactericidal test: CFU count after incubation in PBS buffer; format: cell-based, Pseudomonas aeruginosa; settings: for Colony count (UFC/mL ± 10) Pseudomonas: Example 9; for P. aeruginosa count (UFC/mL ± 10) As a function of treatment time: 37° C., Example 6; for concentration at which the number of CFU/mL decreases to 1000: FIG. 11, Example 12
# Burkhordelia cepacia = format: cell-based; settings: control 1,300,000; for Colony count (UFC/mL ± 10) Burkhordelia: 4 hours at 37° C., Example 9; for Colony count (UFC/mL ± 10): 4-hour contact at 37° C., Example 8
# Method: In this case, tests were run on a non-nutritive liquid carrier (buffer solution) wherein the antimicrobial agent is mixed with quantified inocula of pure bacterial cultures. After different incubation times, the material is seeded on agar plates to perform quantification assays on the number of bacterias surviving the treatment.
# When the time for each assay finished, aliquots of 100 uL and decimal dilutions of each tube which were seeded on petri dishes for the direct count of colony forming units (CFU) in Mueller Hinton agar (MHA), using pour-plating or spread-plating standard methods.
# During testing, the medium was stored in thermostatic bath between 45-50° C. because the seeding technique requires imbibing and integrating bacteria in the medium.
# Pseudomonas fluorescens = assay: Bactericidal test: CFU count after incubation in PBS buffer; format: cell-based; settings: 4-hour contact at 37° C., control 100,000, Example 8
# Enterobacter aerogenes = assay: as above; format: cell-based; settings: 4-hour contact at 37° C., control 1,000,000, Example 8
# Klebsiella pneumoniae = assay: as above; format: cell-based; settings: 4-hour contact at 37° C., control 1,000,000, Example 8
# Escherichia coli = assay: as above; format: cell-based; settings: 4-hour contact at 37° C., control 1,000,000, Example 8
# [1] = tested on: Bacillus subtilis (Gram+); assay: as above; format: cell-based; settings: 4-hour contact at 37° C., control 500,000, Example 8
# [2] = tested on: Staphylococcus aureus (Gram+); assay: as above; format: cell-based; settings: control 1,000,000; for Colony count (UFC/mL ± 10) Staphylococcus: 4 hours at 37° C., Example 9; for Colony count (UFC/mL ± 10) S. aureus: 4-hour at 37° C., Example 15; for Colony count (UFC/mL ± 10): 4-hour contact at 37° C., Example 8
# [3] = tested on: Enterococcus faecalis (Gram+); assay: as above; format: cell-based; settings: 4-hour contact at 37° C., control 100,000, Example 8
# [4] = tested on: artificial biofilm of P. aeruginosa; assay: Antimicrobial effect on artificial biofilm (2% alginate solution); format: cell-based, Pseudomonas aeruginosa; settings: Biofilm (2% alginate) + ionic strength (1 M NaCl), 4 hours at 37° C., control 2,000,000, Example 21
# Method: Work consisted of incubating bacterial populations of a known load in terms of CFU/mL with the compounds mentioned in different molar concentrations. In vitro test batteries were organized at different doses or concentrations and in 1.5 mL Eppendorf tubes without the addition of culture medium. To this purpose, a PBS 100 mM phosphate buffer was used to maintain physiological conditions throughout the period of each test at 37° C. […] Each plate was added with 5 uL of a solution of 2,3,5-metabolic dye triphenyltetrazolium of chloride (TTC) 1% to enhance the contrast of colonies. Plates were incubated in inverted position, in a culture stove for 24-48 hours at 37° C. and subsequently the direct count was done, adjusted by dilution factors and seeding to report results in terms of CFU/mL. […] Treatments lasted 4 hours at 37° C.
compound,measurement,setting,value
"CC(C)Cc1ccc(C(C)C(=O)O)cc1.[Na] (stereo not shown) [IBU-Na, SODIUM IBUPROFEN]",Colony count (UFC/mL ± 10) Pseudomonas,"P. aeruginosa; IBU-Na 50 mM, 4 hours at 37° C., control 1,700,000",100 UFC/mL
same,P. aeruginosa count (UFC/mL ± 10) As a function of treatment time,"P. aeruginosa; IBU-Na 50 mM, 4 hours, control 2,000,000",30 UFC/mL
same,P. aeruginosa (UFC/mL ± 10),"P. aeruginosa; IBU-Na 50 mM, Without ionic strength, 4 hours at 37° C., control 1,700,000, Example 12",100 UFC/mL
same,P. aeruginosa (UFC/mL ± 10),"P. aeruginosa; IBU-Na 50 mM, pH 7.8, 4 h at 37°, control 200,000, Example 7",600 UFC/mL
same,Colony count (UFC/mL ± 10),"P. aeruginosa; IBU-Na 100 mM, 4-hour contact at 37° C., control 2,000,000, Example 8",10 UFC/mL
same,P. aeruginosa count (UFC/mL ± 10) As a function of treatment time,"P. aeruginosa; IBU-Na 100 mM, 1 hour, control 2,000,000","2,000 UFC/mL"
same,Colony count (UFC/mL ± 10) Pseudomonas,"P. aeruginosa; IBU-Na 100 mM, 4 hours at 37° C., control 1,700,000",10 UFC/mL
same,concentration at which the number of CFU/mL decreases to 1000,"P. aeruginosa; with ionic strength of NaCl 1 M, 4 hours at 37° C.",about 5 mM
same,concentration at which the number of CFU/mL decreases to 1000,"P. aeruginosa; without ionic strength, 4 hours at 37° C.",25 mM
same,Colony count (UFC/mL ± 10) Burkhordelia,Burkhordelia cepacia; IBU-Na 5 mM,"1,300,000 UFC/mL"
same,Colony count (UFC/mL ± 10) Burkhordelia,Burkhordelia cepacia; IBU-Na 10 mM,"1,300,000 UFC/mL"
same,Colony count (UFC/mL ± 10) Burkhordelia,Burkhordelia cepacia; IBU-Na 25 mM,"40,000 UFC/mL"
same,Colony count (UFC/mL ± 10),Burkhordelia cepacia; IBU-Na 50 mM,680 UFC/mL
same,Colony count (UFC/mL ± 10) Burkhordelia,Burkhordelia cepacia; IBU-Na 50 mM,700 UFC/mL
same,Colony count (UFC/mL ± 10),Burkhordelia cepacia; IBU-Na 100 mM,10 UFC/mL
same,Colony count (UFC/mL ± 10) Burkhordelia,Burkhordelia cepacia; IBU-Na 100 mM,10 UFC/mL
same,Colony count (UFC/mL ± 10),Pseudomonas fluorescens; IBU-Na 50 mM,150 UFC/mL
same,Colony count (UFC/mL ± 10),Pseudomonas fluorescens; IBU-Na 100 mM,10 UFC/mL
same,Colony count (UFC/mL ± 10),Enterobacter aerogenes; IBU-Na 50 mM,450 UFC/mL
same,Colony count (UFC/mL ± 10),Enterobacter aerogenes; IBU-Na 100 mM,10 UFC/mL
same,Colony count (UFC/mL ± 10),Klebsiella pneumoniae; IBU-Na 50 mM,600 UFC/mL
same,Colony count (UFC/mL ± 10),Klebsiella pneumoniae; IBU-Na 100 mM,10 UFC/mL
same,Colony count (UFC/mL ± 10),Escherichia coli; IBU-Na 50 mM,500 UFC/mL
same,Colony count (UFC/mL ± 10),Escherichia coli; IBU-Na 100 mM,10 UFC/mL
same,Colony count (UFC/mL ± 10),[1]; IBU-Na 50 mM,250 UFC/mL
same,Colony count (UFC/mL ± 10),[1]; IBU-Na 100 mM,10 UFC/mL
same,Colony count (UFC/mL ± 10) Staphylococcus,[2]; IBU-Na 5 mM,"1,000,000 UFC/mL"
same,Colony count (UFC/mL ± 10) Staphylococcus,[2]; IBU-Na 10 mM,"1,000,000 UFC/mL"
same,Colony count (UFC/mL ± 10) S. aureus,[2]; IBU-Na 12.5 mM + ClNa (1M),100 UFC/mL
same,Colony count (UFC/mL ± 10) S. aureus,[2]; IBU-Na 25 mM + ClNa (1M),10 UFC/mL
same,Colony count (UFC/mL ± 10) Staphylococcus,[2]; IBU-Na 25 mM,"30,000 UFC/mL"
same,Colony count (UFC/mL ± 10) S. aureus,[2]; IBU-Na 50 mM + ClNa (1M),10 UFC/mL
same,Colony count (UFC/mL ± 10),[2]; IBU-Na 50 mM,550 UFC/mL
same,Colony count (UFC/mL ± 10) Staphylococcus,[2]; IBU-Na 50 mM,600 UFC/mL
same,Colony count (UFC/mL ± 10),[2]; IBU-Na 100 mM,10 UFC/mL
same,Colony count (UFC/mL ± 10) Staphylococcus,[2]; IBU-Na 100 mM,10 UFC/mL
same,Colony count (UFC/mL ± 10),[3]; IBU-Na 50 mM,180 UFC/mL
same,Colony count (UFC/mL ± 10),[3]; IBU-Na 100 mM,10 UFC/mL
same,P. aeruginosa (UFC/mL ± 10),[4]; 10 mM,"25,000 UFC/mL"
same,P. aeruginosa (UFC/mL ± 10),[4]; 25 mM,200 UFC/mL

# From patent publication US11925612B2, “Bactericidal and virucidal pharmaceutical composition” (Quimica Luar SRL, priority 2015, dated 2024)
